From patent US20210380547A1, “UREA DERIVATIVES FOR TREATING AND/OR PREVENTING CANCER” (CENTRE NATIONAL DE LA RECHERCHE SCIENTIFIQUE, priority 2018, published 2021)

Assays:
786-O and 786-R cells = assay: Clonogenicity (colony formation) assay, RCC cells; assay type: cell-based, human; details: 1 μM, 10 days
Description: G: Clonogenicity assays: RCC cells ([…] and 786-R) were treated with compound #1 or sunitinib (1 μM) and colored with Giemsa blue after 10 days (representative results of an experiment repeated trice);
Cells (5000 cells per condition) were treated or not with compound #1 and sunitinib, and cisplatin. Colonies were detected after 10 days of culture. Cells were then washed, fixed at room temperature for 20 min with 3% paraformaldehyde (PFA; Electron Microscopy Sciences) and colored by GIEMSA (Sigma)

[1] = Pharmacokinetics after oral gavage in mice; assay type: in vivo; details: oral gavage 50 mg/Kg
Description: Compound #1 was then formulated at 7.6 mg/mL, and administrated by oral gavage at 50 mg/Kg (n=12 mice) and pharmacokinetic parameters have been measured (Table 2).

[2] = tested on: phosphorylation of ERK and AKT; assay: Immunoblotting of p-ERK and p-AKT in 786-O and 786-R; assay type: cell-based, human; details: 2.5 μM, 1 to 48 h
Description: H: 786-O and 786-R were treated with 2.5 μM compound #1 for 1 to 48 h. p-ERK and p-AKT levels were determined by immunoblotting. ERK and AKT served as loading controls. *P<0.05; **P<0.01; ***P<0.001.
(§1) Cells were lysed in buffer containing 3% SDS, 10% glycerol and 0.825 mM Na2HPO4. 30 to 50 μg of proteins were separated on 10% SDS-PAGE, transferred onto a PVDF membrane (Immobilon, Millipore, France) and then exposed to the appropriate antibodies. Proteins were visualized with the ECL system using horseradish peroxidase-conjugated anti-rabbit or anti-mouse secondary antibodies.

OCI-AML2 = assay: XTT cell viability assay, OCI-AML2; assay type: cell-based, human; details: Homo sapiens, OCI-AML2; XTT assay (48 h); standard deviation of 10%; read-out: EC50 (μM) AML OCI-AML2
Description: (§2) Fifty microliters of sodium 3′-[1-phenylaminocarbonyl)-3,4-tetrazolium]-bis(4-methoxy-6-nitro) benzene sulfonic acid hydrate (XTT) reagent was added to each well. The assay is based on the cleavage of the yellow tetrazolium salt XTT to form an orange formazan dye by metabolically active cells. The absorbance of the formazan product, reflecting cell viability, was measured at 490 nm. Each assay was performed in quadruplicate.
(§3) Compounds #1-#14 have been assayed as potential anti-proliferative agents against a panel of human breast head and neck, and kidney tumor cells and hematological malignancies, selected on the basis of their aggressiveness (e.g. incurable triple-negative breast cancer cells: MDA-MB-231; kidney ccRCC cells: RCC4, A498 and 786-O and 786R; head and neck cancer cells: CAL33, CAL33RR, CAL27, and CAL27RR; acute myeloid cell lines: OCI-AML2, OCI-AML3, MolM13, and MolM14; myelodysplastic cell line: SM1; and chronic myeloid cell line: CML). All these cell lines share as common denominator the expression of CXCR1 and CXCR2. The EC50 values have been measured by a XTT colorimetric assay, and compared to those of SB-225002, used as a reference; the results are listed in Table 1.

SKM1 = assay: XTT cell viability assay, SKM1; assay type: cell-based, human; details: Homo sapiens, SKM-1; XTT assay (48 h); standard deviation of 10%; read-out: EC50 (μM) MDS SKM1
Description: as §2, §3

K562 = assay: XTT cell viability assay, K562; assay type: cell-based, human; details: Homo sapiens, K562; XTT assay (48 h); standard deviation of 10%; read-out: EC50 (μM) CML K562
Description: as §2, §3

HuVEC = HuVEC viability/proliferation (XTT), basal and CXCL5/CXCL7-dependent; assay type: cell-based; details: XTT 48 h; 100 ng/ml CXCL7 or CXCL5, 0.25 or 0.5 μM
Description: C: HuVEC were grown in the presence of different concentrations of compound #1 for 48h. Cell viability was measured by XTT assays;
D: HuVEC were incubated with 100 ng/ml CXCL7 or CXCL5, in presence of 0.25 or 0.5 μM compound #1 for 48 h. Cell viability was measured by XTT assays;
as §2

CAL33RR = assay: XTT cell viability assay, CAL33RR; assay type: cell-based; details: Homo sapiens, light or radiation study; XTT assay (48 h); resistant to irradiation and cisplatin; standard deviation of 10%; read-out: EC50 (μM) Head and Neck CAL33RR
Description: as §2, §3

ERK signaling pathway = assay: Immunoblotting of p-ERK in CXCL5-stimulated HuVEC; assay type: cell-based; details: 5 μM pre-treatment 1 h, CXCL5 50 ng/ml 10 min
Description: E: HuVEC were pre-treated with 5 μM compound #1 for 1 h then stimulated with 50 ng/ml CXCL5 for 10 min. p-ERK levels were analyzed by immunoblotting. ERK and HSP60 served as loading controls *P<0.05; **P<0.01; ***P<0.001.
as §1

A498 cells = assay: Tumor xenograft experiment (ectopic model of RCC); assay type: in vivo, mice
Description: as §1
One microgram of total RNA was used for the reverse transcription, using the QuantiTect Reverse Transcription kit (QIAGEN, Hilden, Germany), with a blend of oligo (dT) and random primers to prime first-strand synthesis. SYBR master mix plus (Eurogentec, Liege, Belgium) was used for qPCR. The mRNA level was normalized to 36B4 mRNA.
Ectopic model of RCC: seven million A498 cells were injected subcutaneously into the flank of 5-week-old nude (nu/nu) female mice (Janvier, France). The tumor volume was determined with a caliper (v=L*1^2*0.5). When the tumor reached 100 mm^3, mice were treated five a week for 4 weeks, by gavage with placebo (dextrose water vehicle) or compound #1 (50 mg/kg). This study was carried out in strict accordance with the recommendations in the Guide for the Care and Use of Laboratory Animals. Our experiments were approved by the “Comite national institutionnel d′éthique pour l'animal de laboratoire (CIEPAL)”
Sections from blocks of formol-fixed and paraffin-embedded tumors were examined for immunostaining. Sections were incubated with monoclonal anti-Ki67 (clone MIB1, DAKO, Ready to use) antibodies. Biotinylated secondary antibody (DAKO) was applied and binding was detected with the substrate diaminobenzidine against a hematoxylin counterstain.
Mice were xenografted with the highly aggressive ccRCC cells (A498), which form highly vascularized tumors.

Structure (SMILES): O=C(Nc1cccc(Cl)c1)Nc1nc2ccc([N+](=O)[O-])cc2s1 [Compound #1, 1-(3-chlorophenyl)-3-(6-nitrobenzo[d]thiazol-2-yl)urea]
- clonogenicity (786-O and 786-R cells): exerts a cytostatic effect
- half-life ([1]; mouse, in vivo): > 3.17 h
- AUC ([1]; mouse, in vivo, po, 50 mg/kg, read-out: AUC lastPO (converted)): ~1420 ng·h/mL
- Tmax [1]: 0.5 h
- AUC lastPO ([1]; 50 mg/kg): 84965 ± 9367 ng·min/mL
- phosphorylation of ERK and AKT [2]: inhibits the phosphorylation of ERK and AKT
- EC50 (OCI-AML2): 5 µM
- EC50 (SKM1): 5 µM
- EC50 (K562): 2 µM
- basal and CXCL5/CXCL7-dependent HuVEC proliferation (HuVEC): inhibits basal and CXCL5/CXCL7-dependent HuVEC proliferation
- EC50 (CAL33RR): 3 µM
- ERK signaling pathway (p-ERK) in HuVEC (ERK signaling pathway): inhibition of the ERK signaling pathway
- reduction of the tumor weight (A498 cells; A498 xenograft, 50 mg/kg gavage, end of experiment): more than 35%
- reduction of tumor volume (A498 cells; A498 xenograft, 50 mg/kg gavage, end of experiment (day 70)): more than 65%
- mRNA level of CXCL5 in tumors (A498 cells; human, qPCR): significantly decreased
- mRNA level of CXCL7 in tumors (A498 cells; human, qPCR): significantly decreased
- mRNA level of CXCL8 in tumors (A498 cells; human, qPCR): significantly decreased
- mRNA level of VEGFA in tumors (A498 cells; human, qPCR): not those of VEGFA
- AKT phosphorylation in tumor lysates (A498 cells; immunoblotting): inhibits AKT
- ERK phosphorylation in tumor lysates (A498 cells; immunoblotting): not ERK
- weight of the animals (A498 cells; treated group, day 70): No weight loss
- labelling of the proliferation marker Ki-67 (A498 cells; tumor immunostaining): significantly decreases
- lowering of mRNA levels of murine CD31 (A498 cells; tumors, qPCR): more than 75%
